Laboratory results from patent US8129361B2, “Amine compound and pharmaceutical use thereof” (Mitsubishi Tanabe Pharma Corporation, priority 2007, dated 2012).

Columns and labels:
Assay type in all cases: in vivo
[1] = system: peripheral blood lymphocyte number; assay: Peripheral blood lymphocyte number decreasing action in rat; settings: male F344 rats, oral, 24 hr after administration, read-out: ED50 (dose necessary for reducing the lymphocyte count of the vehicle group (100%) by 50%)
[2] = system: peripheral blood lymphocyte number; assay: Peripheral blood lymphocyte number decreasing action in mouse; settings: ip, male BALB/cAnNCrj mice, intraperitoneal, 24 hr after administration, read-out: ED50 (dose necessary for reducing the lymphocyte count of the vehicle group (100%) by 50%)
heart rate in rat = assay: Action on heart rate in rat (telemetry, oral administration); settings: male Crl:CD(SD) rats, measured to 24 hr after administration
Experimental: Action on Heart Rate in Rat
Male Crl:CD(SD) rats were anesthetized by intraperitoneal administration of Nembutal (manufactured by Dainippon Sumitomo Pharma Co., Ltd.), and a pressure sensor connected to a telemetry transmitter (TL11M2-C50-PTX, manufactured by Data Sciences International) was inserted into the abdominal aorta and a transmitter was subcutaneously placed in the abdomen. The blood pressure and heart rate data were recorded by an analysis software (Dataquest A.R.T., manufactured by Data Sciences International) via a receiver (RPC-1, manufactured by Data Sciences International). After confirmation of recovery of circadian rhythm of the heart rate, the rats were subjected to the experiment. The compound of the present invention was suspended in 0.5% hydroxypropylmethylcellulose (manufactured by Shin-Etsu Chemical Co., Ltd.) and orally administered. The heart rate was measured from 72 hr before the administration to 24 hr after the administration.

[3] = up to the dose of 30 mg/kg body weight

SMILES | ED50 [1] [mg/kg] | ED50 [2] [mg/kg] | Effect on heart rate (heart rate in rat; [3]) | Effect on heart rate (heart rate in rat; up to the dose of 10 mg/kg body weight)
Cl.NC(CO)(CO)CCc1ccc(OCCCc2ccc(C(F)(F)F)cc2)c(C(F)(F)F)c1 [Compound 11-4, 2-amino-2-(2-{3-trifluoromethyl-4-[3-(4-trifluoromethylphenyl)propoxy]phenyl}ethyl)propane-1,3-diol hydrochloride] | 0.09 | 0.06 | did not reduce the heart rate | –
Cl.NC(CO)(CO)CCc1ccc(OCCCc2cccc(C(F)(F)F)c2)c(C(F)(F)F)c1 [Compound 12-4, 2-amino-2-(2-{3-trifluoromethyl-4-[3-(3-trifluoromethylphenyl)propoxy]phenyl}ethyl)propane-1,3-diol hydrochloride] | 0.11 | 0.04 | did not reduce the heart rate | –
Cc1cccc(CCCOc2ccc(CCC(N)(CO)CO)cc2C(F)(F)F)c1.Cl [Compound 15-4, 2-amino-2-(2-{4-[3-(3-methylphenyl)propoxy]-3-trifluoromethylphenyl}ethyl)propane-1,3-diol hydrochloride] | 0.05 | 0.03 | did not reduce the heart rate | –
Cl.NC(CO)(CO)CCc1ccc(OCCCc2ccc(Cl)c(Cl)c2)c(C(F)(F)F)c1 [Compound 38-5, 2-amino-2-(2-{4-[3-(3,4-dichlorophenyl)propoxy]-3-trifluoromethylphenyl}ethyl)propane-1,3-diol hydrochloride] | 0.07 | 0.07 | did not reduce the heart rate | –
Cl.NC(CO)(CO)CCc1ccc(OCCCc2ccc(OC(F)(F)F)cc2)c(C(F)(F)F)c1 [Compound 52-5, 2-amino-2-(2-{4-[3-(4-trifluoromethoxyphenyl)propoxy]-3-trifluoromethylphenyl}ethyl)propane-1,3-diol hydrochloride] | 0.05 | 0.08 | did not reduce the heart rate | –
C[C@](N)(CO)CCc1ccc(OCCCc2ccc(Cl)c(Cl)c2)c(C(F)(F)F)c1.Cl [Compound 204-1, (R)-2-amino-4-{4-[3-(3,4-dichlorophenyl)propoxy]-3-trifluoromethylphenyl}-2-methylbutanol hydrochloride] | 0.03 | 0.005 | – | did not reduce the heart rate
